Where no end group is shown, it is not given here.
Columns and labels:
Assay type in all cases: cell-based
[1] = system: excised rabbit lacrimal gland; experiment: Promoting effect on protein secretion from an excised lacrimal gland (2) (Test Example 5); details: carbachol 10^−4 M, incubated 60 minutes; p<0.05
Protocol: A lacrimal gland was excised from a rabbit and incubated in a solution containing PACAP27 or peptide 24, and changes in the amount of secreted protein were examined as lacrimal gland stimulating activity.
Japanese white rabbits with a body weight of 1.5 to 2.0 kg purchased from Fukusaki Rabbit warren were used. The animals were each put in separate cages placed in a room wherein a temperature of 23±3° C. and a humidity of 55±10% were kept and a light was on for 12 hours per day (lighting at 8:00 and lights-out at 20:00), and raised after arrival until the final day of the test. The animals were given 100 g of solid feed (Labo R Stock, Nosan Corporation) per day, and could freely have tap water.
PACAP27 and peptide 24 were used as test substances. Test substance solutions were prepared as follows. […]
The section sample in a stationary state was incubated in 0.5 mL of a fresh incubation solution at 37° C. for 20 minutes under a mixed gas atmosphere of 95% oxygen and 5% carbon dioxide. After completion of the incubation, the incubation solution was collected, and the protein amount in the solution was determined by using a protein staining reagent (DC Protein Assay Reagent, Bio Rad). […] The incubation solution was collected, and the protein amount in the incubation solution was determined. […]

[2] = system: excised rabbit lacrimal gland; experiment: Promoting effect on protein secretion from an excised lacrimal gland (1) (Test Example 3)
Protocol: A lacrimal gland was excised from a rabbit and then treated with PACAP27 or peptide 17. Pharmacological effects of PACAP27 and peptide 17 on an increase in the protein secretion amount were examined.
(a) Purified water was added to sodium chloride (137.92 g), potassium chloride (7.01 g), calcium chloride dihydrate (3.53 g) and magnesium chloride hexahydrate (1.2 g) so that the total volume was 1000 mL (solution 1). Purified water was added to potassium dihydrogen phosphate (8.17 g) so that the total volume was 500 mL (solution 2). The solution 1 (50 mL) and the solution 2 (10 mL) were added to 900 mL of purified water, and in the resulting solution were dissolved glucose (2.07 g) and sodium hydrogen carbonate (2.1 g). The total volume of the resulting solution was adjusted to 1000 mL (pH about 7.4), which was used as a culture solution. A mixed gas of 95% oxygen and 5% carbon dioxide was allowed to pass through the culture solution.
(b) PACAP27 or peptide 17 was dissolved in the culture solution at a concentration of 10^−7 M, which was used as a test substance solution. Carbachol (Nacalai Tesque, Inc.), which has muscarinic agonist activity, was dissolved in the culture solution at a concentration of 10^−4 M, which was used as a control of the drugs (the carbachol-addition group). […]
(a) The section sample in a stationary state was incubated at 37° C. for 20 minutes in 0.5 mL of a fresh culture solution. […] The amount of protein in the culture solution was determined by using a protein staining reagent (DC Protein Assay Reagent, Bio Rad), and was converted into the protein secretion amount per 1 mg of the wet sample. […]
(b) The culture solution of the section sample after incubation obtained in (a) was replaced by 0.5 mL of the test substance solution. […] The protein amount in the collected solution was determined by using the protein staining reagent. In the same way, as a control group, the section sample was incubated in the culture solution which was replaced by a fresh culture solution and the protein amount in the culture solution was determined.

[3] = system: cultured rabbit trigeminal nerve cells; experiment: Promoting effect on neuritogenesis in cultured rabbit trigeminal nerve cells (1) (Test Example 1); details: final concentration 1 μM, cultured for 48 hours; control group 24.1%; p<0.001 vs non-addition group
Description: Japanese white rabbits (2 to 3 days old) purchased from Kitayama Labes Co., Ltd. were used.
Rabbit trigeminal nerve cells were isolated according to a method reported by Chan et al. (Kwan Y. Chan and Richard H. Haschke, Exp. Eye Res. 41: 687-699, 1985). The rabbit was subjected to cardiac perfusion with physiological saline under ether anesthesia. A trigeminal ganglion was excised from the rabbit, and then dispersed in a nerve dispersion liquid (Sumitomo Bakelite Co., Ltd.) to prepare trigeminal nerve cells. The trigeminal nerve cells were cultured in Neurobasal medium (Invitrogen Corp) supplemented with B27 Supplement (Invitrogen Corp; final concentration: 2% v/v) and L-glutamine (Invitrogen Corp; final concentration: 1 mM) under 5% CO2 and 95% air at a humidity of 100% and a temperature of 37° C. […]
For evaluating neuritogenesis in the cultured rabbit trigeminal nerve cells, the lengths of the longest neurite and the major axis of the cell body in the stained cell images scanned into the computer were measured using image analysis software (Image-Pro Plus ver. 4.0, Planetron, Inc.) The cells in 3 wells for each group were measured. […] The proportion (%) of the neurite forming cells in the total cell number was calculated (Otori, Y., Wei, J. Y., Barnstable, C. J., Invest. Opthalmol. Vis. Sic., (1998)39, 972-981).

Compound | protein secretion rate of excised lacrimal gland compared with control group [1] | protein secretion rate of excised lacrimal gland ([2]; carbachol 10^−4 M (control of the drugs)) | proportion (%) of the neurite forming cells in the total cell number [3] | duration of the action of the drug compared with the carbachol-addition group ([2]; 10^−7 M vs carbachol 10^−4 M) | protein secretion rate of excised lacrimal gland ([2]; 10^−7 M, at 20 minutes after initiation of the treatment and thereafter, p<0.05 vs control)
C[N+](C)(C)CCOC(N)=O [carbachol, Carbachol, reference compound] | significant increase | significant increase | – | – | –
His-Ser-Asp-Ala-Ile-Phe-Thr-Asp-Ser-Tyr-Ser-Arg-Tyr-Arg-Arg-Gln-Leu-Ala-Val-Arg-Arg-Tyr-Leu-Ala-Ala-Val-Leu-Gly-Arg-Arg-OH (HSDAIFTDSYSRYRRQLAVRRYLAAVLGRR-OH) [Peptide 17] | – | – | 54.1% | lasted longer | significantly increased

— patent publication US20110212899A1, “Corneal Neuritogenesis Promoter Containing Pacap and Its Derivative” (priority 2004, published 2011)
